Key:
[1] = tested on: HSV-1; assay: Virus penetration assay; assay type: cell-based; conditions: compared to sample 23 of Example 4
Description: (§1) Penetration of HSV into host cells may be defined as a step subsequent to initial binding to the host cell surface which triggers fusion of the virion envelope with the plasma membrane. This requires multiple interactions, in a cascade like manner, involving various glycoproteins (gB, gD and gH/gL) and cell surface components (Cell. Mol. Life Sci, 2008, 65, 1653-1668). […] Vero cells were seeded onto 24 well plates at a density of 1.8×10^5 cells/well. […] The cells were incubated at 4° C. for 2 hours to allow viral attachment. […] The plates were then washed with 0.85% saline and stained with 0.13% crystal violet.

[2] = tested on: HSV-2; assay: Virus penetration assay; assay type: cell-based; conditions: compared to sample 23 of Example 4
Description: as §1

[3] = tested on: HSV-1; assay: Effect on replication at different time points post-infection (MTT); assay type: cell-based
Description: (§2) These stages occur at different time points in the virus life cycle spanning from 1 hour—initiation of adsorption to 24 hours—completion of one HSV replication cycle. Adsorption stage of the virus life cycle is the initial attachment of the herpes virus to host cells which involves interaction of gC and gD (conserved glycoproteins) on the virus with cell surface receptors such as heparin sulfate. Attachment stage of the virus life cycle is the stable attachment which allows close association of virus with the cell. The stage of the virus life cycle subsequent to the adsorption and attachment stages is known as the post infection stage. Vero cells were seeded onto 96-well flat-bottomed plates at a density of 2.2×10^4 cells/well in 10% FBS-DMEM growth medium. After 20-24 hours, the confluent monolayers were infected with 100 μL/well of 1:10^4 virus dilution (HSV-1 clinical strain) (TCID50 5.88×10^6/mL) or 1:10^3 dilution of HSV-2 (TCID50 2.43×10^6/mL) and plates incubated for 1 hour at 37° C. and 5% CO2. […] Maintenance medium was added to the wells for virus control (virus dilution+maintenance medium) and cell control (maintenance medium only). The plates were further incubated for 48-50 hours at 37° C. […] The plate was left in the 37° C., 5% CO2 incubator overnight. After incubation, the plate cover was removed and absorbance measured in each well at 570 nm in the microplate plate reader (BIO-TEK, Synergy HT).

[4] = tested on: HSV-2; assay: as above; assay type: cell-based
Description: as §2

[5] = tested on: HSV-1; assay: Virucidal activity assay; assay type: cell-based; conditions: 25-400 μg/mL
Excerpt: (§3) In the virucidal assay, the continuous presence of an antiviral drug may be frequently required for blocking infectivity of viral particle for cultured cells and dilution of the virus-extract complexes may dissociate, releasing infectious virus (Antiviral research, 2010, 86, 196-203). If a sample is unable to reduce virus infectivity at the IC50 or other potent concentrations then the antiviral activity is not related to its virucidal ability. […] HSV-1 virus suspension at a concentration of approximately 10^10 pfu/mL and HSV-2 at 10^9 pfu/ml were prepared. […] These admixtures were then diluted […] (1:100) to yield a final concentration range of 0.25-4 μg/ml corresponding to 25-400 μg/ml.

[6] = tested on: HSV-2; assay: Virucidal activity assay; assay type: cell-based; conditions: 25-400 μg/mL
Excerpt: as §3

[7] = tested on: HSV-1; assay: Primary antiviral screening, CPE inhibition assay (crystal violet staining method); assay type: cell-based; conditions: Human alphaherpesvirus 1
Description: (§4) The assay was done as reported in Indian J. Med. Res., 2004, 120:24-29 incorporated herein by reference for its procedure.
(§5) Vero cells (obtained in step 1 of Example 8) were propagated at a density of 1×10^4 cells/well in 96 well plate and incubated at 37° C. in a CO2 incubator for 24 hours to form a monolayer. Samples 1 to 26 were tested by adding at 50 μg/mL and 100 μg/mL concentration (DMSO stock of 20 mg/mL of the extract was diluted to 50 μg/mL and 100 μg/mL with DMEM containing 2% FBS) in a final culture volume of 200 μL/well. Appropriate controls were included such as Vero cells alone (cell control), Vero cells with virus (virus control) and Vero cells with virus and the standard compound, acyclovir (a commercially available antiviral drug). Acyclovir was tested at the following concentrations (DMSO stock of 20 mg/mL of acyclovir was diluted to 100 μg/mL with DMEM containing 2% FBS): 12.5 μg/mL, 6.25 μg/mL, 3.125 μg/mL, 1.5 μg/mL and 0.78 μg/mL against HSV-1 and 25 μg/mL, 12.5 μg/mL, 6.25 μg/mL and 3.125 μg/mL against HSV-2. The extracts to be assayed were added 1 hour prior to infection to provide maximum sensitivity and give a tentative idea of potential inhibitors of early replicative steps such as adsorption or penetration. After one hour, cells were infected with 100 μL of appropriate viral dose per well [HSV-1 at a multiplicity of infection (MOI) of 10^4 TCID50 or HSV-2 at a MOI of 10^3 TCID50] using viral stock obtained in step 2 of Example 8. The infected cells were incubated with maintenance medium (DMEM with 2% FBS) for another 48 to 50 hours. […] The staining solution was aspirated out and the plates rinsed using distilled water until all excess stain was washed away. The plates were allowed to dry for 24 hours. CPE was evaluated visually, after staining the plaques, and microscopically and graded according to the percentage of CPE inhibition as compared to controls.

[8] = tested on: HSV-2; assay: as above; assay type: cell-based; conditions: Human alphaherpesvirus 2
Description: as §4, §5

[9] = tested on: HSV-1; assay: Antiviral activity prior to infection (pre-treatment plaque assay); assay type: cell-based; conditions: 3.125-400 μg/mL
Description: (§6) In order for herpes viruses to enter a target cell, they must fuse their lipid membrane envelope with the lipid membrane of the cell. This complex viral entry mechanism is mediated by at least three conserved glycoprotein's (gC, gB and gD) and their ability to bind cell surface receptors such as nectins and herpes virus entry mediator (HVEM) (Cell. Mol. Life Sci, 2008, 65, 1653-1668). […] Vero cells were seeded onto 24 well plates at a density of 1.8×10^5 cells/well. […] Following incubation, the plates were washed with 0.85% saline and stained with 0.13% crystal violet.

[10] = tested on: HSV-2; assay: as above; assay type: cell-based; conditions: 3.125-400 μg/mL
Description: as §6

[11] = tested on: HSV-1; assay: Mouse HSV-1 zosteriform spread infection model; assay type: in vivo, Balb/c female mice; conditions: acyclovir 225 mg/kg/day topical
Excerpt: The assay was done as reported in Antimicrobial Agents and Chemotherapy, June 2002, p. 1766-1772, incorporated herein by reference for its procedure.
Balb/c female mice of 6 to 8 weeks which are non-pregnant and nulliparous were used for the study. All the animals were shaved on right mid dorsal area using electric hair clipper and few horizontal scarification was done on shaved area using sterile 26 gauge needle, just before viral challenge.
Prior to viral challenge, the scarified area of each mouse was cleaned with a cotton swab soaked in 70% alcohol followed by clearing the area using cotton swab soaked in sterile DMEM. Mice were then infected onto the scarified area with HSV-1 virus containing 8.27×10^3 pfu/animal. […]
The following formulations, as described in Example 6, were evaluated: • (a) Formulation IA • (b) Formulation IB • (c) Formulation IC
Formulation IA, Formulation IB and Formulation IC were applied topically thrice daily for a 5 day period. 15 mg of Formulation IA correspond to 225 mg/kg dose; 15 mg of Formulation IB correspond to 450 mg/kg dose; 15 mg of Formulation IC correspond to 675 mg/kg dose and 25 mg of Formulation IB correspond to 750 mg/kg dose evaluated in the animals.
The animals were assessed daily for morbidity, mortality and the site of infection for a period of 21 days post infection. […]

[12] = tested on: HSV-2; assay: Mouse vaginal model of HSV-2 infection; assay type: in vivo, Balb/c female mice; conditions: acyclovir 225 mg/kg/day intravaginal
Description: The assay was done as reported in Antiviral Research, 2006, 69:77-85, incorporated herein by reference for its procedure.
Balb/c female mice of 6 to 8 weeks, non-pregnant and nulliparous were used for the study. Female BALB/c mice were used for vaginal inoculation with HSV-2. Five days prior to intravaginal (IVAG) challenge, mice were injected subcutaneously (sc) with 2 mg of progesterone (Depo-Provera®; Pfizer, Belgium) in the upper back, using a 29-gauge needle. On the day of challenge, mice were inoculated intravaginally with 1.14×10^5 pfu of HSV-2. IVAG administrations of virus were via a micropipette in a total volume of 20 μL DMEM. Animals received Formulation IA, Formulation IB, Formulation IC/acyclovir/placebo intravaginally by topical administration 30 minutes post infection. […]
The following formulations, as described in Example 6, have been evaluated: • (a) Formulation IA • (b) Formulation IB • (c) Formulation IC
Formulation IA, Formulation IB and Formulation IC were applied topically thrice daily for a 5 day period. 15 mg of Formulation IA correspond to 225 mg/kg dose; 15 mg of Formulation IB correspond to 450 mg/kg dose and 15 mg of Formulation IC correspond to 675 mg/kg dose evaluated in the animals.
The animals were assessed daily for extravaginal disease signs and survival for a period of 21 days post infection. […]

SMILES: Nc1nc2c(ncn2COCCO)c(=O)[nH]1 [Acyclovir]
- inhibitory activity (penetration) [1]: weak to moderate inhibitory activity
- inhibitory activity (penetration) [2]: weak to moderate inhibitory activity
- antiviral effect ([3]; 3.125-200 μg/mL, 0-7 hours): potent antiviral effect
- antiviral effect ([3]; 16-24 hours): about 17%
- antiviral effect ([4]; 3.125-200 μg/mL, 0-7 hours): potent antiviral effect
- antiviral effect ([4]; 16-24 hours p.i.): absent
- virucidal effect against HSV-1 [5]: 0-32%
- virucidal effect against HSV-2 [6]: 11-38%
- inhibition at 0.78 µg/mL ([7]; 0.78 μg/mL): 11 to 25%
- inhibition at 1.5 µg/mL ([7]; 1.5 μg/mL): 26 to 50%
- inhibition at 3.125 µg/mL ([7]; 3.125 μg/mL): 51 to 75%
- inhibition at 6.25 µg/mL ([7]; 6.25 μg/mL): 51 to 75%
- inhibition at 12.5 µg/mL ([7]; 12.5 μg/mL): 76 to 100%
- inhibition at 3.125 µg/mL ([8]; 3.125 μg/mL): 11 to 25%
- inhibition at 6.25 µg/mL ([8]; 6.25 μg/mL): 26 to 50%
- inhibition at 12.5 µg/mL ([8]; 12.5 μg/mL): 51 to 75%
- inhibition at 25 µg/mL ([8]; 25 μg/mL): 76 to 100%
- inhibitory effect against HSV-1 prior to infection [9]: 10-40%
- inhibitory effect against HSV-2 prior to infection [10]: 10-20%
- mortality [11]: None of the mice died
- recovery of all mice from zosteriform lesions [11]: ≤ 7 day, post infection
- mortality [12]: None of the mice died
- signs of extravaginal disease [12]: None of the mice showed signs of extravaginal disease

From patent US9498507B2, “Antiviral composition” (Piramal Enterprises Limited, priority 2011, dated 2016)
